Laboratory results as given in PubChem BioAssay AID1963846 (Molecular Pharmacology Branch, DTP, NCI, 2024).

Tested on: 454973-116-R2-J3-PDC complex spheroid viability
Experiment: Anticancer human tumor 454973-116-R2-J3-PDC patient-derived pancreatic carcinoma cell line growth inhibition [POLQ]
Conditions: for IC50: curve of first compound; for viability, T/C: stronger effect = lower value
Summary of the method: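 Growth inhibition in 3D: complex spheroids (tumor PDC, HUVEC, MSC) treated with POLQ inhibitor combinations; where Cmax unknown, highest tested concentration 10 microM, except SN-38 at 1 microM.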

[1] = second compound 0.0316 µM, first compound 0.0316 µM
[2] = second compound 0.0316 µM, first compound 0.1 µM
[3] = second compound 0.0316 µM, first compound 0.316 µM
[4] = second compound 0.0316 µM, first compound 1 µM
[5] = second compound 0.0316 µM, first compound 3.16 µM
[6] = second compound 0.0316 µM, first compound 10 µM
[7] = second compound 0.1 µM, first compound 0.0316 µM
[8] = second compound 0.1 µM, first compound 0.1 µM
[9] = second compound 0.1 µM, first compound 0.316 µM
[10] = second compound 0.1 µM, first compound 1 µM
[11] = second compound 0.1 µM, first compound 3.16 µM
[12] = second compound 0.1 µM, first compound 10 µM
[13] = second compound 0.316 µM, first compound 0.0316 µM
[14] = second compound 0.316 µM, first compound 0.1 µM
[15] = second compound 0.316 µM, first compound 0.316 µM
[16] = second compound 0.316 µM, first compound 1 µM
[17] = second compound 0.316 µM, first compound 3.16 µM
[18] = second compound 0.316 µM, first compound 10 µM
[19] = second compound 1 µM, first compound 0.0316 µM
[20] = second compound 1 µM, first compound 0.1 µM
[21] = second compound 1 µM, first compound 0.316 µM
[22] = second compound 1 µM, first compound 1 µM
[23] = second compound 1 µM, first compound 3.16 µM
[24] = second compound 1 µM, first compound 10 µM
[25] = second compound 3.16 µM, first compound 0.0316 µM
[26] = second compound 3.16 µM, first compound 0.1 µM
[27] = second compound 3.16 µM, first compound 0.316 µM
[28] = second compound 3.16 µM, first compound 1 µM
[29] = second compound 3.16 µM, first compound 3.16 µM
[30] = second compound 3.16 µM, first compound 10 µM
[31] = second compound 10 µM, first compound 0.0316 µM
[32] = second compound 10 µM, first compound 0.1 µM
[33] = second compound 10 µM, first compound 0.316 µM
[34] = second compound 10 µM, first compound 1 µM
[35] = second compound 10 µM, first compound 3.16 µM
[36] = second compound 10 µM, first compound 10 µM
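Note: spheroids exposed to drugs for seven days before measurement.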
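Throughout, for viability, T/C: percent viability relative to DMSO vehicle control wells taken as 100%.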

## C#Cc1c(F)ccc2cc(O)cc(-c3ncc4c(N5CC6CCC(C5)N6)nc(OCC56CCCN5CC(F)C6)nc4c3F)c12 (stereo unspecified) + COC1C(OC(N)=O)C(O)C(Oc2ccc3c(O)c(NC(=O)c4ccc(O)c(CC=C(C)C)c4)c(=O)oc3c2C)OC1(C)C
Second compound 0.0316 µM
  IC50: 108 nM
Second compound 0.1 µM
  IC50: 150 nM
Second compound 0.316 µM
  IC50: 127 nM
Second compound 1 µM
  IC50: 104 nM
Second compound 3.16 µM
  IC50: 131 nM
Second compound 10 µM
  IC50: 141 nM
[1]
  viability, T/C: 72.4%
[2]
  viability, T/C: 48.9%
[3]
  viability, T/C: 40%
[4]
  viability, T/C: 31.8%
[5]
  viability, T/C: 31.9%
[6]
  viability, T/C: 23.4%
[7]
  viability, T/C: 68.2%
[8]
  viability, T/C: 55.6%
[9]
  viability, T/C: 40.1%
[10]
  viability, T/C: 30.3%
[11]
  viability, T/C: 39.8%
[12]
  viability, T/C: 25.3%
[13]
  viability, T/C: 83.9%
[14]
  viability, T/C: 52.4%
[15]
  viability, T/C: 39.2%
[16]
  viability, T/C: 29.7%
[17]
  viability, T/C: 27.8%
[18]
  viability, T/C: 26.7%
[19]
  viability, T/C: 67.3%
[20]
  viability, T/C: 52.3%
[21]
  viability, T/C: 34.7%
[22]
  viability, T/C: 38.3%
[23]
  viability, T/C: 31.1%
[24]
  viability, T/C: 27.9%
[25]
  viability, T/C: 69.7%
[26]
  viability, T/C: 53.4%
[27]
  viability, T/C: 41%
[28]
  viability, T/C: 29.8%
[29]
  viability, T/C: 32.9%
[30]
  viability, T/C: 24.2%
[31]
  viability, T/C: 63%
[32]
  viability, T/C: 56.6%
[33]
  viability, T/C: 35%
[34]
  viability, T/C: 30.1%
[35]
  viability, T/C: 26.6%
[36]
  viability, T/C: 22.6%

## CC(C)n1c(=O)n(C)c2cnc3cc(F)c(-c4ccc(OCCCN5CCCCC5)nc4)cc3c21 + COC1C(OC(N)=O)C(O)C(Oc2ccc3c(O)c(NC(=O)c4ccc(O)c(CC=C(C)C)c4)c(=O)oc3c2C)OC1(C)C
Second compound 0.0316 µM
  IC50: > 10000 nM
Second compound 0.1 µM
  IC50: > 10000 nM
Second compound 0.316 µM
  IC50: > 10000 nM
Second compound 1 µM
  IC50: > 10000 nM
Second compound 3.16 µM
  IC50: > 10000 nM
Second compound 10 µM
  IC50: > 10000 nM
[1]
  viability, T/C: 99.5%
[2]
  viability, T/C: 108%
[3]
  viability, T/C: 114%
[4]
  viability, T/C: 110%
[5]
  viability, T/C: 111%
[6]
  viability, T/C: 85.9%
[7]
  viability, T/C: 107%
[8]
  viability, T/C: 112%
[9]
  viability, T/C: 108%
[10]
  viability, T/C: 114%
[11]
  viability, T/C: 93.7%
[12]
  viability, T/C: 95.6%
[13]
  viability, T/C: 115%
[14]
  viability, T/C: 113%
[15]
  viability, T/C: 113%
[16]
  viability, T/C: 116%
[17]
  viability, T/C: 105%
[18]
  viability, T/C: 88%
[19]
  viability, T/C: 116%
[20]
  viability, T/C: 107%
[21]
  viability, T/C: 115%
[22]
  viability, T/C: 112%
[23]
  viability, T/C: 100%
[24]
  viability, T/C: 93.8%
[25]
  viability, T/C: 118%
[26]
  viability, T/C: 107%
[27]
  viability, T/C: 112%
[28]
  viability, T/C: 116%
[29]
  viability, T/C: 106%
[30]
  viability, T/C: 92.5%
[31]
  viability, T/C: 120%
[32]
  viability, T/C: 103%
[33]
  viability, T/C: 101%
[34]
  viability, T/C: 107%
[35]
  viability, T/C: 101%
[36]
  viability, T/C: 84.9%

## CC1COCCN1c1cc(C2(O)CC3CCC(C2)O3)c2cnn(-c3ccn[nH]3)c2n1 (stereo unspecified) + COC1C(OC(N)=O)C(O)C(Oc2ccc3c(O)c(NC(=O)c4ccc(O)c(CC=C(C)C)c4)c(=O)oc3c2C)OC1(C)C
Second compound 0.0316 µM
  IC50: 205 nM
Second compound 0.1 µM
  IC50: 233 nM
Second compound 0.316 µM
  IC50: 225 nM
Second compound 1 µM
  IC50: 197 nM
Second compound 3.16 µM
  IC50: 193 nM
Second compound 10 µM
  IC50: 217 nM
[1]
  viability, T/C: 104%
[2]
  viability, T/C: 74.1%
[3]
  viability, T/C: 35.3%
[4]
  viability, T/C: 22.1%
[5]
  viability, T/C: 25.1%
[6]
  viability, T/C: 15.6%
[7]
  viability, T/C: 93.2%
[8]
  viability, T/C: 76.9%
[9]
  viability, T/C: 39.6%
[10]
  viability, T/C: 24.4%
[11]
  viability, T/C: 22.2%
[12]
  viability, T/C: 15.8%
[13]
  viability, T/C: 100%
[14]
  viability, T/C: 75.6%
[15]
  viability, T/C: 40.6%
[16]
  viability, T/C: 18.9%
[17]
  viability, T/C: 25.8%
[18]
  viability, T/C: 18.4%
[19]
  viability, T/C: 102%
[20]
  viability, T/C: 69.6%
[21]
  viability, T/C: 37.8%
[22]
  viability, T/C: 18.7%
[23]
  viability, T/C: 21.4%
[24]
  viability, T/C: 20.1%
[25]
  viability, T/C: 104%
[26]
  viability, T/C: 73.5%
[27]
  viability, T/C: 32.6%
[28]
  viability, T/C: 19.3%
[29]
  viability, T/C: 24.1%
[30]
  viability, T/C: 17.6%
[31]
  viability, T/C: 94.6%
[32]
  viability, T/C: 68.4%
[33]
  viability, T/C: 42.3%
[34]
  viability, T/C: 21.5%
[35]
  viability, T/C: 25.8%
[36]
  viability, T/C: 15%
